This note sets out measurements from US20240115654A1, “INTRAVENOUS ADMINISTRATION OF ENGINEERED ANTIMICROBIAL AMPHIPHILIC PEPTIDES” (priority 2021, published 2024).

For assay [1], the system named is Enterococcus faecium ATCC 51559 (VRE). Format: cell-based. The conditions noted are these: Enterococcus faecium ATCC 51559 (VRE). The gist of the method:
(§1)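 Broth microdilution per CLSI in Mueller Hinton II broth with 0.002% polysorbate 80; SEQ ID NO:5 and 8 stocks in DMSO (2.5% final at top dilution), others in PBS; top test concentration 32 mcg/mL. Inoculum ~5×10^5 CFU/mL, 35° C for 16–20 hrs; MIC = lowest concentration preventing visible growth.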

Assay [2] has as its system Escherichia coli ATCC 35218 (ESBL). The class given is cell-based. The conditions noted are these: Escherichia coli ATCC 35218 (ESBL). The gist of the method: as §1
Assay [3] concerns Pseudomonas aeruginosa ATCC 27853 (non-MDR; QC). Format: cell-based. The gist of the method: as §1
Assay [4] concerns Staphylococcus aureus ATCC 29213 (MSSA; QC). Format: cell-based. The following applies: Staphylococcus aureus ATCC 29213 (MSSA; QC). The procedure, abridged: as §1
Assay [5] deals with Streptococcus agalactiae ATCC 13813. The class given is cell-based. The gist of the method: as §1
Assay [6] relates to Acinetobacter spp. isolates (n = 104).
Assay [7] relates to Escherichia coli isolates (n = 101).
For assay [8], the system named is Klebsiella pneumoniae isolates (n = 101).
Assay [9] deals with Pseudomonas aeruginosa isolates (n = 109).
The mark [10] stands for this setting: Pseudomonas aeruginosa (n = 109).
Where [11] appears, read: Klebsiella pneumoniae (n = 101).

For orientation: MIC means the least concentration at which growth counts as inhibited. By MIC90 is commonly meant the lowest concentration that inhibits either 90% of growth or 90% of the strains tested, depending on the study. By MIC50 is commonly meant an inhibitory concentration at the 50% level, which refers to growth in some studies and to a panel of isolates in others. Read a high MIC50 as weaker potency.

Converted amounts (≈) assume the structure as drawn. Read-outs that look alike come from different tables or passages of the source. Peptide text beside a SMILES is read from it.

Consider `CC(C)[C@H](NC(=O)[C@H](Cc1c[nH]c2ccccc12)NC(=O)[C@H](CCCNC(=N)N)NC(=O)[C@H](CCCNC(=N)N)NC(=O)[C@@H](NC(=O)[C@@H](NC(=O)[C@H](CCCNC(=N)N)NC(=O)[C@@H](NC(=O)[C@@H](NC(=O)[C@H](CCCNC(=N)N)NC(=O)[C@H](CCCNC(=N)N)NC(=O)[C@H](Cc1c[nH]c2ccccc12)NC(=O)[C@@H](NC(=O)[C@H](CCCNC(=N)N)NC(=O)[C@H](CCCNC(=N)N)NC(=O)[C@@H](NC(=O)[C@H](CCCNC(=N)N)NC(=O)[C@H](CCCNC(=N)N)NC(=O)[C@@H](NC(=O)[C@H](Cc1c[nH]c2ccccc12)NC(=O)[C@H](CCCNC(=N)N)NC(=O)[C@@H](N)CCCNC(=N)N)C(C)C)C(C)C)C(C)C)C(C)C)C(C)C)C(C)C)C(C)C)C(=O)N[C@@H](CCCNC(=N)N)C(=O)N[C@@H](CCCNC(=N)N)C(N)=O` [SEQ ID NO: 1] (H-RRWVRRVRRVWRRVVRVVRRWVRR-NH2), for which the MIC in assay [1] was 2 µg/mL (≈ 0.588 µM); in [2], 8 µg/mL (≈ 2.35 µM); in [3] (ATCC 27853), 8 µg/mL (≈ 2.35 µM); in [4], 8 µg/mL (≈ 2.35 µM); in [5], 8 µg/mL (≈ 2.35 µM). Further, the “Mode (MIC)” value in [6] was found to be 4 µg/mL; in assay [7] (isolates (n = 101)), 2 µg/mL. The MIC90 was found to be 16 µg/mL (≈ 4.71 µM) in assay [6] (Acinetobacter colistin-resistant, n=21); 16 µg/mL (≈ 4.71 µM) in assay [6] (Acinetobacter spp. (n = 104)); 16 µg/mL (≈ 4.71 µM) in [8] (K. pneumoniae colistin-resistant, n=28); 16 µg/mL (≈ 4.71 µM) in assay [9] (P. aeruginosa colistin-resistant, n=8); 16 µg/mL (≈ 4.71 µM) in assay [9] (setting [10]).

With Colistin [reference compound], the MIC is greater than 32 µg/mL in assay [1]; 0.12 µg/mL in assay [2]; 0.25 µg/mL in [3] (Pseudomonas aeruginosa ATCC 27853 (non-MDR; QC)); greater than 32 µg/mL in assay [4]; greater than 32 µg/mL in [5]. Besides, the MIC50 in assay [6] (Acinetobacter spp. (n = 104)) is 0.25 µg/mL; in assay [7] (Escherichia coli (n = 101)), 0.12 µg/mL; in assay [8] (setting [11]) it was 0.12 µg/mL; in assay [9] (setting [10]), 0.5 µg/mL. In addition, the MIC90 in [6] (Acinetobacter spp. (n = 104)) was greater than 32 µg/mL; in assay [7] (Escherichia coli (n = 101)), 0.12 µg/mL; in assay [8] (setting [11]), 32 µg/mL; in [9] (setting [10]), 1 µg/mL. For the same compound, the “Mode (MIC)” value in [6] (Acinetobacter spp. (n = 104)) amounted to 0.25 µg/mL; in [7] (Escherichia coli (n = 101)), 0.12 µg/mL; in assay [8] (setting [11]) it was 0.12 µg/mL; in assay [9] (setting [10]), 0.5 µg/mL. For the same compound, the “% R (percent of isolates resistant)” value in assay [6] (Acinetobacter spp. (n = 104), CLSI breakpoints) turned out to be 20.2%; in assay [7] (Escherichia coli (n = 101), CLSI breakpoints, colistin EUCAST), 0%; in assay [8] (Klebsiella pneumoniae (n = 101), CLSI breakpoints, colistin EUCAST), 27.7%; in assay [9] (Pseudomonas aeruginosa (n = 109), CLSI breakpoints), 7.3%. Moreover, the MIC range in assay [7] (Escherichia coli (n = 101)) is ≤0.03-0.5 ^ μg/mL.
